Patent US20240398814A1, “KRAS INHIBITOR AND HDAC INHIBITOR COMBINATION FOR THE TREATMENT OF CANCER” (Northwestern University, priority 2023, published 2024)

Experiments:
KL LJE1 cells [1] = test: RNA-seq of drug-treated KL LJE1 cells (TIER genes); assay type: cell-based, mouse; conditions: adj. p-value<0.05, 10 nM trametinib
Description: All cell lines were incubated at 37° C. and were maintained in an atmosphere containing 5% CO2. Cells were tested for Mycoplasma (Lonza) using manufacturer's conditions and were deemed negative. Cells were grown in Dulbecco's modified Eagles medium (DMEM) plus 10% fetal bovine serum (Gibco) and were continuously maintained under antibiotic selection for stable cell lines. Proliferation assays were performed by plating 2×10^3 cells per well of a 6-well plate, and cells were counted 5 days post-plating. […]
mRNA was collected from cells harvested within 2 passages post-thaw. mRNA was isolated using the Quick-RNA Miniprep kit (Zymo Research), including DNase treatment. RNA integrity (RIN) numbers were determined using the Agilent TapeStation prior to library preparation. mRNA-seq libraries were prepared using the TruSeq RNA library preparation kit (version 2), according to the manufacturer's instructions (Illumina). Libraries were quantified, pooled, and sequenced by single-end 50 base pairs using the Illumina HiSeq 2500 platform at the Salk Next-Generation Sequencing Core. […]
Sequenced reads were quality-tested using the online FASTQC tool (bioinformatics.babraham.ac.uk/projects/fastqc) and aligned to the mouse mm10 genome using the STAR aligner version 2.4.0k (Ref. 81; incorporated by reference in its entirety). […]

KL LJE1 cells [2] = test: qRT-PCR of chemokine (HRCG) gene expression in KL LJE1 cells; assay type: cell-based, mouse
Description: (§1) All cell lines were incubated at 37° C. and were maintained in an atmosphere containing 5% CO2. Cells were tested for Mycoplasma (Lonza) using manufacturer's conditions and were deemed negative. Cells were grown in Dulbecco's modified Eagles medium (DMEM) plus 10% fetal bovine serum (Gibco) and were continuously maintained under antibiotic selection for stable cell lines. Proliferation assays were performed by plating 2×10^3 cells per well of a 6-well plate, and cells were counted 5 days post-plating. Drug treatments were carried out using the following doses: entinostat 1 uM or 2 uM, RGFP966 10uM, TSA 0.5 uM, BRD3308 5 uM, trametinib 5 nM, 10 nM, and 25 nM, and MRTX1133 10 nM, 25 nM, and 50 nM, as indicated for the indicated treatment lengths. Media was changed and fresh drug added every 2 days.
(§2) mRNA was prepared using the Quick-RNA Miniprep kit (Zymo Research), including DNase treatment. cDNA was synthesized from 2 μg of RNA using SuperScript III (Life Technologies), and qPCR was carried out with diluted cDNA, appropriate primers, and SYBR Green PCR master mix (ThermoFisher Scientific) using a C1000 Thermal Cycler (BioRad). Relative mRNA levels were calculated using the delta Ct method, using Tbp as an internal control.

NF-kB/p65 protein = test: Western blot of p65 nuclear localisation and K310 acetylation in KL LJE1 cells; assay type: cell-based, mouse; conditions: for quantity of p65 protein in the nuclear fraction: Western blot, 6 hr, 2 uM entinostat, 10uM RGFP966, 0.5 uM TSA
Description: (§3) Protein lysates in CST buffer (20 mM Tris pH 7.5, 150 mM NaCl, 1% Triton X-100, 50 mM NaF, 1 mM EDTA, 1 mM EGTA, 2.5 mM PyroPhosphate, 2 mM beta-glycerol-phosphate, 1 mM orthovanadate, 0.01 mM Calyculan A) with protease inhibitors were equilibrated for protein levels using a BCA protein assay kit (Pierce), resolved on 8% SDS-PAGE gels, and transferred to membrane. Membranes were blocked in milk, incubated o/n at 4C in diluted primary antibody, washed with TBS-T, incubated 1 hr in secondary antibody diluted in TBS-T plus milk, washed in TBS-T, and developed using SuperSignal ECL. Secondary antibodies: anti-rabbit (Millipore AP132P) and anti-mouse (Millipore AP124P). Nuclear fractions were isolated using a NE-PER nuclear and cytoplasmic extraction kit (Thermofisher) under manufacturers conditions.
p65-expressing DNA constructs RelA-Flag (22) (Addgene 20012) and GFP-RelA (21) (Addgene 23255) were transiently transfected into KL LJE1 cells using Lipofectamine 2000 (Thermo Fisher Scientific) according to the manufacturer's protocol. Cells were treated with drug as indicated 24 hours after transfection.

H460 cells = test: qRT-PCR of chemokine gene expression in H460 cells; assay type: cell-based, human; conditions: 1 uM entinostat 4 days, 5 uM BRD3308 4 days
Description: as §1, §2

A549 cells = test: qRT-PCR of chemokine gene expression in A549 cells; assay type: cell-based, human; conditions: 2 uM entinostat 3 days, 5 uM BRD3308 4 days
Description: as §1, §2

KL LJE1 cells [3] = test: Western blot and qRT-PCR of FGFR1, NKX2-1 and ERK phosphorylation in drug-treated KL LJE1 cells; assay type: cell-based, mouse
Description: as §1, §2, §3

human lung cancer cells = test: FGFR1 resistance mechanism in human lung cancer cells; assay type: cell-based; conditions: 6 days of treatment
[4] = HDAC3 KO cells, 5 days, MRTX1133 10, 25, or 50 nM, trametinib 5, 10, or 25 nM

For CC(=O)Nc1cccc(-n2c(=O)n(C3CC3)c(=O)c3c(Nc4ccc(I)cc4F)n(C)c(=O)c(C)c32)c1 [trametinib], the “genes upregulated upon 13 day trametinib compared to vehicle” value (KL LJE1 cells [1]) was 2,141 genes.
With Nc1cc(F)ccc1NC(=O)/C=C/c1cnn(C/C=C/c2ccccc2)c1 [RGFP966] the “chemokine (SASP) gene expression” value (KL LJE1 cells [2]; 72 hr, 2 uM entinostat or 10uM RGFP966) was “robust induction of gene expression” and the “quantity of p65 protein in the nuclear fraction” value (NF-kB/p65 protein) was “increased the quantity of p65 protein in the nuclear fraction”.
In the case of CC(=O)Nc1ccc(C(=O)Nc2ccc(F)cc2N)cc1 [BRD3308], the “gene expression induction in NT versus p65 KO cells” value (KL LJE1 cells [2]; 3 days, 1 uM entinostat or 5 uM BRD3308) is reported as “p65 facilitates maximal gene expression induction”, the “acetylation of wildtype p65 at K310 (versus K310A mutant)” value (NF-kB/p65 protein; 5 hours, 1 uM entinostat or 5 uM BRD3308) is reported as “induce acetylation of wildtype p65 at K310” and the “chemokine (SASP) gene expression” value (H460 cells) is reported as “induced the expression of these genes”. The “chemokine (SASP) gene expression” value (A549 cells) was “induced the expression of these genes”.
CC(/C=C/C(=O)NO)=C\[C@@H](C)C(=O)c1ccc(N(C)C)cc1 [TSA, trichostatin a] was tested, and the “quantity of p65 protein in the nuclear fraction” value (NF-kB/p65 protein) was “increased the quantity of p65 protein in the nuclear fraction”.
C#Cc1c(F)ccc2cc(O)cc(-c3ncc4c(N5CC6CCC(C5)N6)nc(OC[C@@]56CCCN5C[C@H](F)C6)nc4c3F)c12 [MRTX1133] was tested, and the “HRCG expression, drug alone (NT cells)” value (KL LJE1 cells [2]; 5 days, MRTX1133 10, 25, or 50 nM) was “did not impact the expression of these genes”, the “HDAC3 KO-dependent induction of immunosuppressive HRCGs (Cxc15, Cxc1, Cxc12, Cxc13)” value (KL LJE1 cells [2]; [4]) was “reversed the HDAC3-dependent induction” and the “HDAC3 KO-dependent induction of immunosurveillance-related HRCGs (Cc15, Cxc110)” value (KL LJE1 cells [2]; [4]) was “expression was maintained in the presence of MRTX1133”. For the same compound, the FGFR1 resistance mechanism (KL LJE1 cells [3]; 1 day of treatment) was “induces the FGFR1 resistance mechanism in an HDAC3-dependent manner”, the FGFR1 resistance mechanism (KL LJE1 cells [3]; 5 days of treatment) was “induces the FGFR1 resistance mechanism in an HDAC3-dependent manner” and the “ERK phosphorylation at Thr202/Tyr204” value (KL LJE1 cells [3]; Western blot, 24 hr, 10 nM, 25 nM or 50 nM MRTX1133) was “on-target Kras inhibition”. The FGFR1 resistance mechanism (human lung cancer cells) was “induces the FGFR1 resistance mechanism”.
